For one experiment, the target named is T1, CBP (Homo sapiens, UniProt Q92793).
T1 construct: endogenous in cells; host or cells: 22Rv1 (ATCC CRL-2505) human prostate cancer cells
The experiment is described as follows: CBP degradation in 22Rv1 cells (5 h). It is filed as cell-based. The conditions noted are these: 22Rv1 cells, 5 h; for Dmax: 22Rv1, 5 h, read-out: CBP Degradation (22Rv1, 5 h) DCmax. From the text:
(§1) Biological Assays. […] Cells with 3-8 passages after purchase were used in experiments.

Another experiment addresses T2, P300 (Homo sapiens, UniProt Q09472).
T2 construct: endogenous in cells; host or cells: 22Rv1 (ATCC CRL-2505) human prostate cancer cells
The experiment is described as follows: P300 degradation in 22Rv1 cells (5 h). The conditions noted are these: 22Rv1 cells, 5 h; for Dmax: read-out: P300 Degradation (22Rv1, 5 h) DCmax. It counts as cell-based.
Text: as §1

Each structure is given as a SMILES string.

T1 sequence (Q92793 whole entry): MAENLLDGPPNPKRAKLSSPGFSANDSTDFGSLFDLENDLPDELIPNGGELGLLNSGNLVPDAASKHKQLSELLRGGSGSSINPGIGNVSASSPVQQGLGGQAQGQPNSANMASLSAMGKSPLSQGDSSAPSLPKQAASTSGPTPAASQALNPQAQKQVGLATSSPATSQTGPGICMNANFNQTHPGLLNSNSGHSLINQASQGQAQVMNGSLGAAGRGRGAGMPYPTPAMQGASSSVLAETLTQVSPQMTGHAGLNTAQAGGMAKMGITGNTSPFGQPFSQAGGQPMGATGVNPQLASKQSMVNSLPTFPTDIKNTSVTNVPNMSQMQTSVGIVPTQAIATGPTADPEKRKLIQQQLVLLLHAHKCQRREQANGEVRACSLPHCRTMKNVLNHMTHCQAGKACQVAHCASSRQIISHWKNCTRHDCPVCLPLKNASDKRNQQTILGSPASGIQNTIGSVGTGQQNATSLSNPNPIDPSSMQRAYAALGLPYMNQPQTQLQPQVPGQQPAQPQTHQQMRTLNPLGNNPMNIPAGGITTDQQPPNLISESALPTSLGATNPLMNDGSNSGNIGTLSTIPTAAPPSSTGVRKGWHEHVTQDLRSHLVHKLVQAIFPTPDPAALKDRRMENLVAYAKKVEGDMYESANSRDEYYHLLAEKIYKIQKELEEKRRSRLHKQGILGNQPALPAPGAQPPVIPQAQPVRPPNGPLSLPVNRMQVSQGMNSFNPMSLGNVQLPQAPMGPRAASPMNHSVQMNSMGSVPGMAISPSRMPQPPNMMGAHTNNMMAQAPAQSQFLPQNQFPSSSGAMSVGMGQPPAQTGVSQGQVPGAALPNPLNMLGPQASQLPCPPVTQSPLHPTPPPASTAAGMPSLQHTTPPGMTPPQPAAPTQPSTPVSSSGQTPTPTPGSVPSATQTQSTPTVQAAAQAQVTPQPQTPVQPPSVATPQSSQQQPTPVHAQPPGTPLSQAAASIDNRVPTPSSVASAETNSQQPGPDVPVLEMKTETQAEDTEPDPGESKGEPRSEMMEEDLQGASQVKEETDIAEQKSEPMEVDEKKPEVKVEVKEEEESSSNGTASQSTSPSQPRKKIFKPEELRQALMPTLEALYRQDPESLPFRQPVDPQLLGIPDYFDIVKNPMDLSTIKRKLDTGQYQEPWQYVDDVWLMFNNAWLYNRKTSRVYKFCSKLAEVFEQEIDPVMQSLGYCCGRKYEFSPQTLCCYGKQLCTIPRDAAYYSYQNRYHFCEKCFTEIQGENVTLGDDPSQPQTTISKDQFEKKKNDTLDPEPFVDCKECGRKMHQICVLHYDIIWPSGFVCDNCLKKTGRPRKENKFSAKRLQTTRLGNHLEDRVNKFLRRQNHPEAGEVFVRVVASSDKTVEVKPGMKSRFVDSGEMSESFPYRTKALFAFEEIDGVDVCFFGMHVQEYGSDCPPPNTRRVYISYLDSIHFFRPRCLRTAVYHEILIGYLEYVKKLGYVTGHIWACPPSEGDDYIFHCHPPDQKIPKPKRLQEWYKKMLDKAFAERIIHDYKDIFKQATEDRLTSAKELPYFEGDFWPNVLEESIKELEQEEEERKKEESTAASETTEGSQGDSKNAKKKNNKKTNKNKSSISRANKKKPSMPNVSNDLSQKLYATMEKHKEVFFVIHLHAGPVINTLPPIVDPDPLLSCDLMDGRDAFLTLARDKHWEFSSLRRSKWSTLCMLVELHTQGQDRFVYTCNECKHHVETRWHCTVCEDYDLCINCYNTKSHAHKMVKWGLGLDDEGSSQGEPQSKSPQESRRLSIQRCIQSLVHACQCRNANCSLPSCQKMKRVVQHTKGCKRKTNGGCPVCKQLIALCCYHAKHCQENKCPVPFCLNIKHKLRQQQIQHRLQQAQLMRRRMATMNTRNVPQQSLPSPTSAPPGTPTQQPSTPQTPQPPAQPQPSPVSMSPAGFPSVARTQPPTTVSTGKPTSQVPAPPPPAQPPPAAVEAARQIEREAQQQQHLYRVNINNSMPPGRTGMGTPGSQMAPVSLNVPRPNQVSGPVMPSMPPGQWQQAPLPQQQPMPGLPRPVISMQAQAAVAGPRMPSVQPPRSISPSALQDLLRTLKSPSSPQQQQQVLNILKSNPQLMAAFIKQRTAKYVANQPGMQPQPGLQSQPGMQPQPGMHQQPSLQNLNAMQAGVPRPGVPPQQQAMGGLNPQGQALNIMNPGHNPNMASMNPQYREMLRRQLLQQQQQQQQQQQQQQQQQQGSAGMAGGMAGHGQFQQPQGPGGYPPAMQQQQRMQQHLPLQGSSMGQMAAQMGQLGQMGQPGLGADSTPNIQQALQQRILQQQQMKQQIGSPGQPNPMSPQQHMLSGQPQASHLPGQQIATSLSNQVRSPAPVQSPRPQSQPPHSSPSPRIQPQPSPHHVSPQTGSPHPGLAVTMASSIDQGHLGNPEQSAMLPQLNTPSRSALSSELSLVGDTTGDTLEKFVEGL
T2 sequence (Q09472 whole entry): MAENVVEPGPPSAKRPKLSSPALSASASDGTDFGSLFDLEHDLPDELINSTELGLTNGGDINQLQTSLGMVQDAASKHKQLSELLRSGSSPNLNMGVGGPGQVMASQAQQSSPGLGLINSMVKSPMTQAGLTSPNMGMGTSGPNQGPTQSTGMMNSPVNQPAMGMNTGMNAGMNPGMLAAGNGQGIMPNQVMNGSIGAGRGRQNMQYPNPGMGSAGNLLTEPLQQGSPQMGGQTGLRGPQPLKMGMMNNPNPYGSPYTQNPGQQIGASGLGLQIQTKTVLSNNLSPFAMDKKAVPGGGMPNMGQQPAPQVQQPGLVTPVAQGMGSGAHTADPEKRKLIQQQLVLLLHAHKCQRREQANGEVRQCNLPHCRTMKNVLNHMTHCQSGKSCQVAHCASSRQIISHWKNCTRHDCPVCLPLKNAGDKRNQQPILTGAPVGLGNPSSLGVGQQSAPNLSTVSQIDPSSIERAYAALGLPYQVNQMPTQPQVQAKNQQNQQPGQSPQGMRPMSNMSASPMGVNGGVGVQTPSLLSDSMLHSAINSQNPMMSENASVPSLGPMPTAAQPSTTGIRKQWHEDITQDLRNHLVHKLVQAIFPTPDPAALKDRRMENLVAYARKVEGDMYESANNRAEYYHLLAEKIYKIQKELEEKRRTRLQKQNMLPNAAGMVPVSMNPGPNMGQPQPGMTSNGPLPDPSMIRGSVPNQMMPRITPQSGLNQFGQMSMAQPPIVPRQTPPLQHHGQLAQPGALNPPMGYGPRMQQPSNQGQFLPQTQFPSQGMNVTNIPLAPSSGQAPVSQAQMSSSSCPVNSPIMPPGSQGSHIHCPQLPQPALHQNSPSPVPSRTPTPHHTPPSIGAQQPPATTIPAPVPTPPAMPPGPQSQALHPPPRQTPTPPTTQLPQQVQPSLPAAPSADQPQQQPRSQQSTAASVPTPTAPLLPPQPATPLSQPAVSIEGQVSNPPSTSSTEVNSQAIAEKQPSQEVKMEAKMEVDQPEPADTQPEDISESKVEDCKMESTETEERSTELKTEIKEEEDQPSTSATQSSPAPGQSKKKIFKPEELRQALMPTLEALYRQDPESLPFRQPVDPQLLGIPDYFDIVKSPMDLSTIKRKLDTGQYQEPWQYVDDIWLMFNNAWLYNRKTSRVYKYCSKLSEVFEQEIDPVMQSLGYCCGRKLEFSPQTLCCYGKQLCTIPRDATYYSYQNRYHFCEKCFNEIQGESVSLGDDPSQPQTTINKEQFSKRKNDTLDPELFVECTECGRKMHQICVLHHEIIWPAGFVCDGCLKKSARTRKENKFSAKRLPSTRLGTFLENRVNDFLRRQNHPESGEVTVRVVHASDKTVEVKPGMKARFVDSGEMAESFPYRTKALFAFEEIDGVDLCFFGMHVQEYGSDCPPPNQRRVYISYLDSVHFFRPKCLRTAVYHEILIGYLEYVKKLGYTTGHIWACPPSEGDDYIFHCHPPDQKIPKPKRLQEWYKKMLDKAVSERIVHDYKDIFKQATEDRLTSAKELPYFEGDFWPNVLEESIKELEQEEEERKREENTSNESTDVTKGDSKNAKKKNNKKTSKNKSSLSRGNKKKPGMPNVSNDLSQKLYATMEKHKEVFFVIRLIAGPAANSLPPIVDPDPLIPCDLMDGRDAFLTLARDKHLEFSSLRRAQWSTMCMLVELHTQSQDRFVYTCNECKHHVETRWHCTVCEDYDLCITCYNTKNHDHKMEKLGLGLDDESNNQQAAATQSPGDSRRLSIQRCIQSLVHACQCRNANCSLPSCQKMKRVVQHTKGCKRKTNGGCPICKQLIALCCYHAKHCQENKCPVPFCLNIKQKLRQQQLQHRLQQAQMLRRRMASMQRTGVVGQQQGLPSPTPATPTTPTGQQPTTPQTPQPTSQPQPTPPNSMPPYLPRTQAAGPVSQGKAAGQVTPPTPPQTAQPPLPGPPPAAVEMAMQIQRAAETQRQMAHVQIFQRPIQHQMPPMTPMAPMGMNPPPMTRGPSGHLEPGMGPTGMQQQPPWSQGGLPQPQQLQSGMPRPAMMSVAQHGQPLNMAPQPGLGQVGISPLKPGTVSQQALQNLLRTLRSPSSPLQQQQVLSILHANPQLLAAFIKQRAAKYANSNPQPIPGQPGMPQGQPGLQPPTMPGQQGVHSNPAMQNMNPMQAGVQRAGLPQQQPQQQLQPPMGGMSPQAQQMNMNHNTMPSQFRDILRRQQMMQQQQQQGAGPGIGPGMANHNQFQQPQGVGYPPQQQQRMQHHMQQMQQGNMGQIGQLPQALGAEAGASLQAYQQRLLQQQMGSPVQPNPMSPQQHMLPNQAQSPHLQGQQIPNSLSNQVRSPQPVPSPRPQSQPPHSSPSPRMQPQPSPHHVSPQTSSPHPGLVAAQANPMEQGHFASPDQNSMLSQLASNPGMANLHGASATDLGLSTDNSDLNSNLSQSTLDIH

Regarding `CC(=O)N1CCc2c(c(N3CCCc4cc(-c5cnn(C)c5)c(C(F)F)cc43)nn2C2CCC(N3CC4(Cc5cc6c(cc5C4)C(=O)N(C4CCC(=O)NC4=O)C6=O)C3)CC2)C1` (stereo not shown) [CP-086, 1-(4-(5-acetyl-3-(7-(difluoromethyl)-6-(1-methyl-1H-pyrazol-4-yl)-3,4-dihydroquinolin-1(2H)-yl)-4,5,6,7-tetrahydro-1H-pyrazolo[4,3-c]pyridin-1-yl)cyclohexyl)-2′-(2,6-dioxopiperidin-3-yl)-5′,7′-dihydro-1′H-spiro[azetidine-3,6′-cyclopenta[f]isoindole]-1′,3′(2′H)-dione], the Dmax on CBP and at P300 was > 70% in each case. Moreover, the DC50 at CBP and at P300 was < 10 nM in each case.
For `CC(=O)N1CCc2c(c(N3CCCc4cc(-c5cnn(C)c5)c(C(F)F)cc43)nn2C2CCC(N3CCc4ccc5c(c4C3)C(=O)N(C3CCC(=O)NC3=O)C5=O)CC2)C1` (stereo not shown) [CP-087, 8-((1r,4r)-4-(5-acetyl-3-(7-(difluoromethyl)-6-(1-methyl-1H-pyrazol-4-yl)-3,4-dihydroquinolin-1(2H)-yl)-4,5,6,7-tetrahydro-1H-pyrazolo[4,3-c]pyridin-1-yl)cyclohexyl)-2-(2,6-dioxopiperidin-3-yl)-6,7,8,9-tetrahydro-1H-pyrrolo[3,4-h]isoquinoline-1,3(2H)-dione], at CBP, the Dmax is < 50% and the DC50 (commonly the concentration giving 50% degradation) is > 1000 nM. Moreover, on P300, the DC50 was > 1000 nM and the Dmax is < 50%.
As to `CC(=O)N1CCc2c(c(N3CCCc4cc(-c5cnn(C)c5)c(C(F)F)cc43)nn2[C@H]2CC[C@H](CN3CC4(Cc5cc6c(cc5C4)C(=O)N(C4CCC(=O)NC4=O)C6=O)C3)CC2)C1` (stereo partly shown) [CP-088, 1-(((1r,4r)-4-(5-acetyl-3-(7-(difluoromethyl)-6-(1-methyl-1H-pyrazol-4-yl)-3,4-dihydroquinolin-1(2H)-yl)-4,5,6,7-tetrahydro-1H-pyrazolo[4,3-c]pyridin-1-yl)cyclohexyl)methyl)-2′-(2,6-dioxopiperidin-3-yl)-5′,7′-dihydro-1′H-spiro[azetidine-3,6′-cyclopenta[f]isoindole]-1′,3′(2′H)-dione], the Dmax at CBP and on P300 was > 70% each time. Moreover, the DC50 on CBP and at P300 was < 10 nM each time.
`CC(=O)N1CCc2c(c(N3CCCc4cc(-c5cnn(C)c5)c(C(F)F)cc43)nn2[C@H]2CC[C@H](CN3CCc4ccc5c(c4C3)C(=O)N(C3CCC(=O)NC3=O)C5=O)CC2)C1` (stereo partly shown) [CP-089, 8-(((1r,4r)-4-(5-acetyl-3-(7-(difluoromethyl)-6-(1-methyl-1H-pyrazol-4-yl)-3,4-dihydroquinolin-1(2H)-yl)-4,5,6,7-tetrahydro-1H-pyrazolo[4,3-c]pyridin-1-yl)cyclohexyl)methyl)-2-(2,6-dioxopiperidin-3-yl)-6,7,8,9-tetrahydro-1H-pyrrolo[3,4-h]isoquinoline-1,3(2H)-dione]: at CBP, the Dmax was < 50% and the DC50 is > 1000 nM. For the same compound, on P300, the DC50 is > 1000 nM and the Dmax was < 50%.

The record behind these values is US20240150360A1 (THE REGENTS OF THE UNIVERSITY OF MICHIGAN, priority 2021, published 2024).
